Paper PMC3071374, “High Throughput Screens Yield Small Molecule Inhibitors of Leishmania CRK3:CYC6 Cyclin-Dependent Kinase” (PLoS Neglected Tropical Diseases, 2011)

How the values were obtained:
WT promastigote L. major = experiment: L. major promastigote growth inhibition assay (resazurin); assay type: cell-based; conditions: BioFocus SFK48 HTS hits; 5 days at 25°C; read-out: IC50 against WT promastigote L. major
Experimental: L. major wild type promastigotes (Friedlin strain: WHO designation MHOM/JL/81/Friedlin) were grown at 25°C in HOMEM medium (Invitrogen cat no. 041-94699111) supplemented with 10% (v/v) heat inactivated foetal calf serum (HIFCS) and 1% (v/v) penicillin/streptomycin antibiotics.
CRK3 inhibitors were diluted into HOMEM medium supplemented with 10% HIFCS at twice the final screening concentration. Five-fold or ten-fold serial dilutions were carried out into HOMEM medium supplemented with 10% HIFCS. 100 µl of each drug concentration were added to a 96 well plate in duplicate. 100 µl of five-fold or ten-fold serial dilutions of 1 mM Pentamidine (Sigma) and an equivalent volume of 100% DMSO were included as positive and negative controls, in duplicate, respectively. L. major promastigote cells were diluted to a cell density of 2×10^6 cells ml^−1 in HOMEM media supplemented with 10% HIFCS and 100 µl added to all wells in 96 well plates. Plates were sealed with parafilm and incubated for 5 days at 25°C. After 5 days, 20 µl of filter sterile resazurin solution (12.5 mg resazurin salt in 100 ml PBS) (Sigma) was added to each of the wells and the plate incubated for a further 24 hours at 25°C. Fluorescence was measured using an Envision plate reader (Perkin Elmer) at 540 nm excitation wavelength and 590 nm emission wavelength.

Leishmania CRK3:CYC6 = Leishmania CRK3:CYC6 (Leishmania major, UniProt O96526); experiment: IMAP fluorescence polarisation high throughput screen of CRK3:CYC6; assay type: biochemical, L. major; set-up: made in house; host or cells: E. coli BL21 (DE3) pLys-S; conditions: BioFocus SFK48 library, primary concentration 20 µM
Sequence of Leishmania CRK3:CYC6 (O96526 entry or part of it): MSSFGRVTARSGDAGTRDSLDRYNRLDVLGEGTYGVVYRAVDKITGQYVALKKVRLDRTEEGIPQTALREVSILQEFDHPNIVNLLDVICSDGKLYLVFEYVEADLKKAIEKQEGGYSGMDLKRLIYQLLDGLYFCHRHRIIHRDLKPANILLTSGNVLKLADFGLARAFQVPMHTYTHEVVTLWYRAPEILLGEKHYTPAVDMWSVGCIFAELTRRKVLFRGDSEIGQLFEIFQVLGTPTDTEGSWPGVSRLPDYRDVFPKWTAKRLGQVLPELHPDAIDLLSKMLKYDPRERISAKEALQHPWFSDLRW
Experimental: (§1) Protein kinase assays were performed in 384-well non-treated black plates (Nunc) in a final volume of 20 µl. Each assay point contained 1.25 ng of co-expressed Leishmania CRK3:CYC6 protein kinase complex. […] The enzyme complex, peptide and ATP were made up in the IMAP complete reaction buffer (CRB) (10 mM Tris-HCl, pH 7.2, 10 mM MgCl2, 0.05% NaN3, 0.01% Tween-20 and 1 mM DTT). Assays were carried out for 1 hour 20 minutes at room temperature and the reaction stopped by the addition of 50 µl of the IMAP progressive binding reagent (Proprietary buffer from Molecular Devices plus tri-valent metal-containing nanoparticles). The assay was left to proceed for a further 1 hour 20 minutes at room temperature and the fluorescence polarization determined by a Perkin Elmer Fusion microplate reader, with excitation at 485 nm and emission at 535 nm.

human CDK2:CycA = human CDK2:CycA (Homo sapiens, UniProt P24941); experiment: Mammalian protein kinase assay / counter screen, CDK2:CYCA; assay type: biochemical; conditions: BioFocus SFK48 library, counter screen
Experimental: Leishmania CRK3:CYC6 protein kinase assays were performed in 96-well microtiter plates in a final volume of 25 µl. Each assay point contained 7.5 ng of co-expressed histidine-tagged CRK3:CYC6 protein kinase complex (hereafter referred to as CRK3:CYC6) diluted in enzyme dilution buffer (EDB) (20 mM Tris-HCl pH 7.2, 0.5 mg ml^−1 BSA, 2.5% glycerol and 0.006% Brij-35). Assays were performed using the assay development buffer (ADB) (20 mM MOPS, pH 7.0, 25 mM β-glycerophosphate, 5 mM EGTA, 1 mM NaVO3, 1 mM DTT and 15 mM MgCl2) supplemented with 100 µM ATP, 0.5 µCi of γ-^32P ATP per reaction and histone H1 as a substrate used at 0.4 mg ml^−1. Two and three-fold titrations were set up to determine the concentration of enzyme to be used per assay point (7.5 ng) and to determine the concentrations of selected inhibitors required for 50% inhibition of Leishmania CRK3:CYC6 protein kinase activity (IC50 values), respectively. For IC50 determinations, assay mixes contained DMSO to a final concentration of 2%. Mammalian protein kinase assays were carried out according to the assay protocols developed at Cyclacel. Assays were carried out for 30 minutes at 30°C before stopping the reaction by the addition of an equal volume (25 µl) of 75 mM orthophosphoric acid. Samples were spotted onto a p81 cellulose filterplate (Nunc) and a vacuum applied. Wells were washed 3×200 µl with 75 mM phosphoric acid and the bottom of the plate sealed. 50 µl of Microscint 40 (Perkin Elmer) was added per well before incorporation of radioactivity was determined on a Topcount microplate scintillation counter.

CRK3:CYC6 = conditions: peptide as substrate of CRK3:CYC6
Sequence of CRK3:CYC6 (O96526 entry or part of it): as above
Experimental: as §1
The IMAP fluorescent polarisation assay was selected for the high throughput screen. First a substrate finder assay was carried out with 61 potential serine/threonine protein kinase substrates. […] In order to establish the quantity of CRK3:CYC6 to use in the IMAP HTS assays, a two-fold enzyme titration was carried out (Figure S2 in Supporting Information Text S1).

Compound	IC50 (WT promastigote L. major)	activity towards CRK3:CYC6 in the primary screen (Leishmania CRK3:CYC6)	activity towards CDK2:CycA in the primary screen (human CDK2:CycA)	ΔmP signal (CRK3:CYC6)
NC(c1csc(NC(=O)Nc2cccc(Cl)c2)n1)c1ccccc1Cl (centres unmarked) [Compound 43]	12.5 µM	active	active	–
CN(C)Cc1csc(NC(=O)Nc2ccccc2Oc2ccccc2)n1 [Compound 44]	14.4 µM	active	active	–
COc1ccc(CC(N)c2csc(NC(=O)Nc3cc(OC)ccc3OC)n2)cc1 (centres unmarked) [Compound 45]	6.8 µM	inactive	inactive	–
COc1ccc(CNC(=O)Nc2nc(C(N)CCc3ccccc3)cs2)cc1 (centres unmarked) [Compound 46]	7.8 µM	inactive	inactive	–
FLAKSFGSPNRAYKK [CDK7 derived]	–	–	–	180 mP
GGGPATPKKAKKL [Histone H1 derived]	–	–	–	295 mP
GGGRSPGRRRRK [Generic Sequence]	–	–	–	310 mP
PKTPKKAKKL [Histone H1 derived (aa 9–18)]	–	–	–	280 mP
RRRFRPASPLRGPPK [DYRKtide]	–	–	–	190 mP
